One compound from patent US12280018B2, “Antiseptic compositions” (RHT LIMITED, priority 2020, dated 2025) can be followed below.

Structures are written as SMILES.

Assay [1] relates to PolySeed® BOD Seed Inoculum (blend of broad spectrum bacteria). In words: Durability test (bacteria spiked regularly on treated agar plate, swab viable count). It counts as cell-based. The settings on record: bacteria solution spiked every 60 minutes. On the procedure: To evaluate the durability of bacteria inhibition of the exemplary compositions, durability test by regularly spiking a fixed amount of bacteria into the sample is performed and the procedures are incorporated herein by reference.
• Group A: Agar plate with 0.5 mL distilled water; • Group B: Agar plate with 0.5 mL 75% isopropyl alcohol (IPA); • Group C: Agar plate with 0.5 g of tested exemplary composition.
Bacteria strain used: PolySeed® BOD Seed Inoculum Capsules (1 caspsule dissolved into 500 mL Distilled Water) (Interlab), which contains a blend of broad spectrum bacteria designed specifically as a seed inoculum for the Biochemical Oxygen Demand (BOD 5) test as conducted in accordance to Standard Methods of the Examination of Water and Wastewater. PolySeed® is an EPA approved BOD 5 seed inoculum that has been used to seed both municipal and industrial wastes for almost 20 years.
Agar: Trypticase Soy Agar (TSA)
Incubation condition: 48 hours at 30±1° C.
The above three sample group agar plates are used as the sample matrices of different initial situation for spiking 0.5 ml bacteria solution for every 60 minutes, i.e.: there was an on-going process of spiking bacteria at time 0, 60, 120, 180, 240, 300 minutes;
A swab testing is carried out every 30 minutes from matrix samples of each group to test for the viable count of bacteria at the time interval.
• AM: 0.5 ml bacteria solution is added at T0-10 min; • Sample A1: To swab from AM at T0; Sample A2: To swab from AM at T1; • AM: 0.5 ml bacteria solution is added at T2-10 min; • Sample A3: To swab from AM at T2; Sample A4: To swab from AM at T3; • AM: 0.5 ml bacteria solution is added at T4-10 min; and so forth. Table 2 summarized the testing schedule for durability test.

Assay [2] deals with PolySeed® BOD Seed Inoculum. Description: Volatility test (duration of bacteria inhibition on treated agar plate). In kind it is cell-based. On the procedure: To study the duration on ability of bacteria inhibition of an exemplary composition, a volatility test is performed.
• Group A: Agar plate with 0.5 mL distilled water; • Group B: Agar plate with 0.5 mL 75% isopropyl alcohol (IPA); • Group C: Agar plate with 0.5 g of tested exemplary composition. Bacteria strain used: PolySeed® BOD Seed Inoculum Capsules (1 capsule dissolved into 500 mL Distilled Water) (Interlab) Agar: Trypticase Soy Agar (TSA) Incubation condition: 48 hours at 30±1° C. Testing Procedure 0.5 mL bacteria solution is add into the agar plate groups A, B and C at the time interval of Tx. as defined in Table 1.3.
After T10, bacteria solution is spiked to all the agar plates except agar blank.
Swab test is carried out to test for the viable count of bacteria at the time interval Tx.

Regarding `CC(C)O` [75% IPA, isopropyl alcohol], the CFU/plate in assay [1] (T0 (0 min)) stood at 8 CFU/plate; in assay [1] (T1 (30 min)) it was 28 CFU/plate; in assay [1] (T2 (60 min)) it was 53 CFU/plate; in assay [1] (T3 (90 min)) it was 89 CFU/plate; in assay [1] (T4 (120 min)) it was 254 CFU/plate; in assay [1] (T5 (150 min)) it was 346 CFU/plate. Besides, the CFU/plate entry in assay [1] (T6 (180 min)) is given as “Uncountable (the bacterial colonies are too numerous to be counted in the agar plate, e.g., more than 335 colonies per plate)”; in assay [1] (T7 (210 min)) it was “Uncountable (the bacterial colonies are too numerous to be counted in the agar plate, e.g., more than 335 colonies per plate)”; in assay [1] (T8 (240 min)), “Uncountable (the bacterial colonies are too numerous to be counted in the agar plate, e.g., more than 335 colonies per plate)”; in assay [1] (T9 (270 min)), “Uncountable (the bacterial colonies are too numerous to be counted in the agar plate, e.g., more than 335 colonies per plate)”; in assay [1] (T10 (300 min)), “Uncountable (the bacterial colonies are too numerous to be counted in the agar plate, e.g., more than 335 colonies per plate)”; in assay [2] (T0 (0 min)), 54 CFU/plate. Also, the CFU/plate in assay [2] (T1 (30 min)) is reported as 62 CFU/plate; in assay [2] (T2 (60 min)), 50 CFU/plate; in assay [2] (T3 (90 min)) it was 45 CFU/plate; in assay [2] (T4 (120 min)), 49 CFU/plate; in assay [2] (T5 (150 min)) it was 55 CFU/plate; in assay [2] (T6 (180 min)), 43 CFU/plate. Besides, the CFU/plate came to 37 CFU/plate in assay [2] (T7 (210 min)), 44 CFU/plate in assay [2] (T8 (240 min)), 49 CFU/plate in assay [2] (T9 (270 min)) and 0 CFU/plate in assay [2] (T10 (300 min)).
